Measurements reported in PubChem BioAssay (NCI).
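Briefly, cells in 96-well plates were exposed to five compound concentrations for 48 h, and endpoints were estimated by linear interpolation. The concentration for 50% growth inhibition is given as GI50. TGI is the concentration that stops growth completely.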

Tests used:
Test in all cases: NCI anticancer screen, dose series, 48 h
MOLT-4 leukemia = system: MOLT-4 leukemia
NCI-H226 lung = system: NCI-H226 lung
NCI-H460 lung = system: NCI-H460 lung
OVCAR-8 ovarian = system: OVCAR-8 ovarian
RPMI-8226 leukemia = system: RPMI-8226 leukemia
SR leukemia = system: SR leukemia
BT-549 breast = system: BT-549 breast
NCI-H23 lung = system: NCI-H23 lung
SW-620 colon = system: SW-620 colon
MDA-MB-435 = system: MDA-MB-435

| SMILES | TGI (MOLT-4 leukemia) [µM] | TGI (NCI-H226 lung) [µM] | TGI (NCI-H460 lung) [µM] | TGI (OVCAR-8 ovarian) [µM] | TGI (RPMI-8226 leukemia) [µM] | TGI (SR leukemia) [µM] | GI50 (BT-549 breast) [µM] | TGI (BT-549 breast) [µM] | GI50 (MOLT-4 leukemia) [µM] | GI50 (NCI-H226 lung) [µM] | GI50 (NCI-H23 lung) [µM] | TGI (NCI-H23 lung) [µM] | GI50 (NCI-H460 lung) [µM] | GI50 (OVCAR-8 ovarian) [µM] | GI50 (RPMI-8226 leukemia) [µM] | GI50 (SW-620 colon) [µM] | TGI (SW-620 colon) [µM] | GI50 (MDA-MB-435) [µM] | TGI (MDA-MB-435) [µM] |
| --- | --- | --- | --- | --- | --- | --- | --- | --- | --- | --- | --- | --- | --- | --- | --- | --- | --- | --- | --- |
| CC(=O)Oc1c(C)n(CCCl)ccc1=O | > 100 | > 100 | > 100 | > 100 | > 100 | > 100 |  |  |  |  |  |  |  |  |  |  |  |  |  |
| COc1ccccc1C(=O)/C=C/c1cc2cccc(OC)c2[nH]c1=O | 5.2 | 3.47 | 0.524 | 15 | 1.42 | > 51.3 | 0.112 | 1.37 | 0.0408 | 0.0716 | 0.125 | 2.04 | 0.0243 | 0.0392 | < 0.0181 | 0.0158 | 1.56 |  |  |
| OB([O][Hg][c]1ccccc1)[O][Hg][c]1ccccc1 | 0.643 | 4.33 | 3.06 | 3.53 | 0.592 |  | 0.226 | 0.779 | 0.177 | 1.52 | 0.784 | 2.17 | 0.589 | 0.522 | 0.211 | 0.191 | 0.5 | 0.475 | 1.63 |
| CC1=C(C(=O)Nc2ccccc2)C(c2ccc3c(c2)OCO3)C(C(=O)Nc2ccccc2)=C(C)N1 | 82 | > 100 | > 100 | > 100 | 79.4 |  |  |  |  |  |  | > 100 |  |  |  |  | 12.3 |  |  |
| CCOC(=O)c1cccc(=O)c(C(=O)OCC)c1 | > 100 | 45.4 | > 100 | > 100 | > 100 |  |  |  |  |  |  | > 100 |  |  |  |  | > 100 |  |  |
| Cc1cc(C)nc(NS(=O)(=O)c2ccc(Nc3c4ccccc4nc4c(C(=O)Nc5ccc(S(N)(=O)=O)cc5)cccc34)cc2)n1 | > 100 |  | > 100 | > 100 | > 100 |  |  |  |  |  |  | > 100 |  |  |  |  | > 100 |  |  |
| O=S(=O)(O)CS(=O)(=O)OCCCl | > 100 | > 100 | > 100 | > 100 | > 100 | > 100 |  |  |  |  |  | > 100 |  |  |  |  | > 100 |  |  |
| CC12OC(C(=O)C13CC3)C1C(=O)c3ccccc3C(=O)C12 (stereo unspecified) | > 100 |  | > 100 | 48.4 |  |  | 36.2 | 76.9 | 32 |  | 29.5 | > 100 | 29.9 | 20.3 |  |  |  | 41.4 | > 100 |
| N#Cc1ccccc1NC(=O)C(=O)C(C(=O)c1ccccc1-c1ccccc1)C1OC(=O)c2ccccc21 (stereo unspecified) | 70 |  | 40.4 | > 100 | 79.7 |  |  |  |  |  |  | 26.1 |  |  |  |  | 75.5 |  |  |
| CC(=O)c1ccc(Nc2cc(-n3ccnc3)nc3ccccc23)cc1 | 58.1 | 92.1 | > 100 | > 100 | 9.84 |  | > 100 | > 100 | 10.7 | 24.4 | 49.6 | > 100 | 34.2 | 50.5 | 3.24 | 49.1 | > 100 | 13.5 | 60.1 |
| COc1ccc(/C=C2/CCCC/C2=N/O)cc1 | > 100 |  | > 100 | > 100 | > 100 |  |  |  |  |  |  | > 100 |  |  |  |  | > 100 |  |  |
| CC1=C(C(=O)Nc2ccc([N+](=O)[O-])cc2)C(c2ccco2)C(C(=O)Nc2ccc([N+](=O)[O-])cc2)=C(C)N1 | 52.5 | > 100 | > 100 | > 100 | 25.5 |  |  |  |  |  |  | 65.9 |  |  |  |  | > 100 |  |  |
| CCOC(=O)Cc1c(Cc2[nH]c(C(=O)OCc3ccccc3)c(CC(=O)OCC)c2CC(=O)OCC)[nH]c(C(=O)OCc2ccccc2)c1CC(=O)OCC | > 100 |  |  | > 100 | > 100 | > 100 |  |  |  |  |  |  |  |  |  |  | > 100 |  |  |
| CCCCCCC(=O)C/C(CCC(=O)N(Cc1ccccc1)Cc1ccccc1)=N\Nc1ccc([N+](=O)[O-])cc1[N+](=O)[O-] |  | > 100 | > 100 | > 100 | > 100 |  |  |  |  |  |  | > 100 |  |  |  |  | > 100 |  |  |
| O=[N+]([O-])c1ccc(N/N=C\c2cc(Cl)ccc2O)nc1 | > 100 | > 100 | 13.6 | 14.1 | > 100 |  | 3.23 | 14.9 | 0.51 | 20.9 | 0.541 | 9 | 1.66 | 0.97 | 0.987 | 0.873 | > 100 | 1.76 | > 100 |
| O=C1C2=C(c3ccccc31)C(c1ccc(Cl)cc1)N1C(=O)CCSC1=N2 (stereo unspecified) | > 100 | > 100 |  |  | > 100 |  |  |  |  |  |  | > 100 |  |  |  |  | > 100 |  |  |
| C/C(=N\NC(=S)Nc1ccc(C(=O)O)cc1)c1ccccn1 | > 100 | 34.2 | 50.2 | 45.5 | 76.6 | 56.3 |  |  |  |  |  | 98.6 |  |  |  |  | 39.1 |  |  |
| O=C(Nc1ccncc1)C(=O)c1cn(S(=O)(=O)c2ccc(Br)cc2)c2ccccc12 |  | > 100 | > 100 | > 100 | > 100 |  | 11.8 | > 100 |  | 20.9 | 4.74 | > 100 | 11.3 | 5.9 | 4.56 | 4.18 | > 100 | 0.459 | 3.49 |
| CC(=O)[CH-]C(=O)c1ccccc1.CC(=O)[CH-]C(=O)c1ccccc1.CCN(CC)CC[O-].CCN(CC)CC[O-].Cl.[Ti+4] | 59.9 | 62.4 | > 100 | > 100 | > 100 |  |  |  | 16.8 | 23 |  |  | 29.8 | 38.8 | 38.3 | 45.9 | > 100 |  |  |
| CC1=COC(=O)c2ccccc2N1 |  | > 100 | > 100 | > 100 | > 100 | > 100 |  |  |  |  |  | > 100 |  |  |  |  | > 100 |  |  |
| CCOP(=O)(OCC)C1C(=O)O[C@H]2CCCC[C@@H]12 (stereo partly specified) | > 100 |  | > 100 | > 100 | > 100 |  |  |  |  |  |  | > 100 |  |  |  |  | > 100 |  |  |
